Species: Rattus norvegicus
Test: Antiandrogen activity in male rats
Assay type: functional

| SMILES | ED50 |
| --- | --- |
| C[C@@](O)(CS(=O)(=O)c1ccc(F)cc1)C(=O)Nc1ccc(C#N)c(C(F)(F)F)c1 [(S)-BICALUTAMIDE] | 30 mg/kg |
| CC(O)(CS(=O)(=O)c1ccc(F)cc1)C(=O)Nc1ccc(C#N)c(C(F)(F)F)c1 (stereo unspecified) [BICALUTAMIDE] | 0.5 mg/kg |
| C[C@](O)(CSc1ccc(F)cc1)C(=O)Nc1ccc(C#N)c(C(F)(F)F)c1 | 0.5 mg/kg |
| C[C@](O)(CS(=O)(=O)c1ccc(F)cc1)C(=O)Nc1ccc(C#N)c(C(F)(F)F)c1 [(R)-BICALUTAMIDE] | 0.5 mg/kg |
| C[C@@](O)(CSc1ccc(F)cc1)C(=O)Nc1ccc(C#N)c(C(F)(F)F)c1 | 30 mg/kg |
| CC(O)(CSc1ccc(F)cc1)C(=O)Nc1ccc(C#N)c(C(F)(F)F)c1 (stereo unspecified) | 0.5 mg/kg |

— ChEMBL document CHEMBL1124095, “Resolution of the nonsteroidal antiandrogen 4'-cyano-3-[(4-fluorophenyl)sulfonyl]-2-hydroxy-2-methyl-3'- (trifluoromethyl)-propionanilide and the determination of the absolute configuration of the active enantiomer” (1988)
